According to publication PMC2192098 (The Journal of Experimental Medicine, 1995):

What was measured:
[1] = test system: HepG2 cells; alpha 1-antichymotrypsin synthesis; experiment: alpha1-antichymotrypsin; assay type: cell-based, human; settings: HepG2, 6 h, 37°C
[2] = test system: HepG2 cells; alpha 1-antichymotrypsin synthesis; settings: lower doses of IL-6; cited from earlier work
HepG2 cells = settings: cell lines such as HepG2; cited from earlier work
[3] = test system: HepG2 cells; complement C3 synthesis; experiment: C3 synthesis in HepG2 cells; assay type: cell-based, human; settings: for time at which increase in C3 synthesis becomes evident: C5a or FMLP 10 nM, HepG2, 37°C, Fig. 6; for effect on C3 synthesis: HepG2, 6 h, 37°C, 1 and 10 nM, Fig. 7
[4] = test system: HepG2 cells; albumin synthesis; experiment: Albumin synthesis in HepG2 cells; assay type: cell-based, human; settings: for time at which decrease in albumin synthesis becomes evident: C5a or FMLP 10 nM, Fig. 6
[5] = test system: HepG2 cells; complement Bf synthesis; experiment: Complement Bf synthesis in HepG2 cells; assay type: cell-based, human; settings: HepG2, 6 h, 37°C; 1 and 10 nM; Fig. 7
[6] = test system: HepG2 cells; transferrin synthesis; experiment: Transferrin synthesis in HepG2 cells; assay type: cell-based, human; settings: HepG2, 6 h, 37°C; 1 and 10 nM; Fig. 7
[7] = test system: HepG2 cells; alpha1-AT synthesis; experiment: alpha1-antitrypsin; assay type: cell-based, human; settings: HepG2, 6 h, 37°C; 1 and 10 nM; Fig. 7
[8] = test system: HepG2 cells; C5 synthesis; experiment: C5 synthesis in HepG2 cells; assay type: cell-based, human; settings: HepG2, 6 h, 37°C; 1 and 10 nM; Fig. 7
[9] = test system: HepG2 cells; fibrinogen and C4 synthesis; experiment: Fibrinogen and C4 synthesis in HepG2 cells; assay type: cell-based, human; settings: data not shown
[10] = test system: HepG2 cells; serum amyloid A or C-reactive protein synthesis; experiment: Serum amyloid A and C-reactive protein synthesis in HepG2 cells; assay type: cell-based, human; settings: data not shown
[11] = test system: HepG2 cells; acute phase protein synthesis; experiment: Synthesis of acute phase proteins in HepG2 cells; assay type: cell-based, human; settings: for effect on C3 and albumin synthesis at higher concentrations: higher concentrations of chemotactic peptides, data not shown
neutrophils = settings: cited from earlier work
FMLPR in HepG2 cells = target: T1, FMLPR in HepG2 cells (Homo sapiens, UniProt P21462); experiment: Binding of radioiodinated FMLP analogue to HepG2 cells
T1 sequence (P21462 1-350): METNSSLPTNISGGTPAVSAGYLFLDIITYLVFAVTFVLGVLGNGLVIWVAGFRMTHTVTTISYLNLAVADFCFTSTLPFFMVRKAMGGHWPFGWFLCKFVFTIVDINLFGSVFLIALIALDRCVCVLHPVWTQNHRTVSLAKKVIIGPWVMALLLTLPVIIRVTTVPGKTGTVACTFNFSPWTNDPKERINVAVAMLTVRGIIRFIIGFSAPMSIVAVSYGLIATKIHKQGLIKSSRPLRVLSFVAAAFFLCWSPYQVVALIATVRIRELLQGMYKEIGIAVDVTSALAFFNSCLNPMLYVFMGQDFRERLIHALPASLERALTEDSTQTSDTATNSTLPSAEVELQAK

[12] = test system: C5a and FMLP receptor-activated signal transduction pathways; settings: background statement, no reference given; cited from earlier work
[13] = test system: vascular tissue, smooth muscle, mast cells; settings: cited from earlier work
human endothelial cells = settings: cited from earlier work
C5aR in HepG2 cells = settings: cited from earlier work
[14] = HepG2, 10 h, IL-1β 10 ng/ml + IL-6 10 ng/ml as positive control, Fig. 5
[15] = HepG2, 37°C, 10 h, serum-free, C5a or FMLP 1 and 10 nM, Fig. 5
[16] = HepG2, 6 h, 37°C, 1 and 10 nM, Fig. 7

Question: For “IL-6: prototype acute phase cytokine IL-6”, which “concentration of maximal effect on alpha1-ACT synthesis” value ([1]; Fig. 9 right) is on record?
Answer: 0.2 /xg/ml

Question: And the “effect on alpha1-ACT synthesis” value ([1]; IL-6, several concentrations from 0.2 μg/ml, Fig. 9 right)?
Answer: increase

Question: And the “effect on alpha1-ACT synthesis at lower doses” value [2]?
Answer: con- centration dependent at lower doses

Question: And the “changes in expression of acute phase genes” value (shortened to “changes in expression”) (HepG2 cells)?
Answer: changes in expression of at least several if not many acute phase genes

Question: With “IL-I~: cytokine (interleukin-1 beta; scan error)” as the molecule, how does the “changes in expression” value (HepG2 cells) read?
Answer: changes in expression of at least several if not many acute phase genes

Question: With “formyl-methionyl-leucyl-phenylalanine [FMLP, reference compound]” as the molecule, how does the “time at which increase in C3 synthesis becomes evident” value [3] read?
Answer: 6 h

Question: And the “effect on C3 synthesis” value [3]?
Answer: increases

Question: What about the “magnitude of effect on C3 synthesis vs combined effect of IL-1β and IL-6” value [3, 14] of the same molecule?
Answer: less than but comparable in magnitude

Question: What about the “time at which decrease in albumin synthesis becomes evident” value ([4]; HepG2, 37°C) of the same molecule?
Answer: 6 h

Question: And the “effect on albumin synthesis” value [4, 15]?
Answer: concentration-dependent decreases in synthesis of albumin

Question: And the “effect on albumin synthesis” value [4, 16]?
Answer: decreases

Question: What about the “concentration at which effect on albumin biosynthesis was first evident” value ([4]; HepG2, 10 h, Fig. 5) of the same molecule?
Answer: 1 nM

Question: What about the “magnitude of effect on albumin synthesis vs combination of IL-1β and IL-6” value [4, 14] of the same molecule?
Answer: less than but comparable

Question: And the “effect on complement Bf synthesis” value [5]?
Answer: increases

Question: And the “alpha1-ACT synthesis at higher (supersaturating) concentrations” value ([1]; FMLP above 20 nM, Fig. 9 left)?
Answer: returns to control levels

Question: What about the “effect on alpha1-ACT synthesis” value ([1]; 1 and 10 nM, Fig. 7) of the same molecule?
Answer: increases

Question: What about the “effect on transferrin synthesis” value [6] of the same molecule?
Answer: decreases

Question: What about the “effect on alpha1-AT synthesis” value [7] of the same molecule?
Answer: no effect

Question: And the “effect on C5 synthesis” value [8]?
Answer: no effect

Question: And the “effect on fibrinogen and C4 synthesis” value [9]?
Answer: minimally and inconsistently increased

Question: What about the “induction of serum amyloid A or C-reactive protein synthesis” value [10] of the same molecule?
Answer: no evidence for induc- tion

Question: What about the “lowest concentration with evident effect on synthesis of acute phase proteins” value ([11]; abstract) of the same molecule?
Answer: 1 nM

Question: And the “effect on C3 and albumin synthesis at higher concentrations” value [11]?
Answer: dissipation of the effect

Question: And the “effect on neutrophil chemotaxis at supersaturating concentrations” value (neutrophils)?
Answer: abrogated at supersaturating concentra- tions

Question: And the neutrophil program activated (neutrophils)?
Answer: directed cell migration, release of active oxy- gen intermediates, and release of proteolytic and phlogistic granular contents

Question: Which results are given for “formylNLe-Leu-Phe-NLe-Tyr-Lys [radioiodinated FMLP analogue]”?
Answer: binding of radioiodinated FMLP analogue to HepG2 cells (FMLPR in HepG2 cells; HepG2, 2 h at 4°C, Fig. 3A): specific and saturable binding; plasma membrane receptors per cell (R) (FMLPR in HepG2 cells; Scatchard plot, HepG2, 2 h at 4°C): ~6,000 plasma membrane receptors per cell; Kd (FMLPR in HepG2 cells; Scatchard plot, HepG2 monolayers, 2 h at 4°C, DMEM, 10 mM Hepes, pH 7.2, 1 mg/ml BSA, 0.05% Tween 80, nonspecific: 200-fold (Fig. 3: 250-fold) molar excess unlabeled FMLP, gamma counting): ~2.47 nM

Question: For leukemia inhibitory factor: cytokine, which “changes in expression” value (HepG2 cells) is on record?
Answer: changes in expression of at least several if not many acute phase genes

Question: For pertussis toxin, which “inhibition of C5a/FMLP receptor signal transduction” value [12] is on record?
Answer: is inhibited by pertussis toxin

B1: IL-lc~: cytokine (interleukin-1 alpha; scan error) (protein, UniProt P01583 113-271, looked up)
Interleukin-1 alpha: SAPFSFLSNVKYNFMRIIKYEFILNDALNQSIIRANDQYLTAAALHNLDEAVKFDMGAYKSSKDDAKITVILRISKTQLYVTAQDEDQPVLLKEMPEIPKTITGSETNLLFFWETHGTKNYFTSVAHPNLFIATKQDYWVCLAGGPPSITDFQILENQA
Question: For B1, which “changes in expression” value (HepG2 cells) is on record?
Answer: changes in expression of at least several if not many acute phase genes

B2: oncostain M: cytokine (protein, UniProt P13725 26-221, looked up)
Oncostatin-M: AAIGSCSKEYRVLLGQLQKQTDLMQDTSRLLDPYIRIQGLDVPKLREHCRERPGAFPSEETLRGLGRRGFLQTLNATLGCVLHRLADLEQRLPKAQDLERSGLNIEDLEKLQMARPNILGLRNNIYCMAQLLDNSDTAEPTKAGRGASQPPTPTPASDAFQRKLEGCRFLHGYHRFMHSVGRVFSKWGESPNRSRR
Question: For B2, which “changes in expression” value (HepG2 cells) is on record?
Answer: changes in expression of at least several if not many acute phase genes

B3: IL-11: cytokine (protein, UniProt P20809 22-199, looked up)
Interleukin-11: PGPPPGPPRVSPDPRAELDSTVLLTRSLLADTRQLAAQLRDKFPADGDHNLDSLPTLAMSAGALGALQLPGVLTRLRADLLSYLRHVQWLRRAGGSSLKTLEPELGTLQARLDRLLRRLQLLMSRLALPQPPPDPPAPPLAPPSSAWGGIRAAHAILGGLHLTLDWAVRGLLLLKTRL
Question: Which “changes in expression” value (HepG2 cells) does the source give for B3 here?
Answer: changes in expression of at least several if not many acute phase genes

B4: C5a: 11,200-D cationic glycopeptide from the first 74 residues of the C5 alpha chain; recombinant human C5a (Sigma) used (protein, UniProt P01031 678-751, looked up)
C5a anaphylatoxin: TLQKKIEEIAAKYKHSVVKKCCYDGACVNNDETCEQRAARISLGPRCIKAFTECCVVASQLRANISHKDMQLGR
modifications: C5a anaphylatoxin
Question: Which results are given for B4?
Answer: time at which increase in C3 synthesis becomes evident [3]: 6 h; effect on C3 synthesis [3]: increases; time at which decrease in albumin synthesis becomes evident ([4]; HepG2, 37°C): 6 h; effect on albumin synthesis [4, 15]: concentration-dependent decreases in synthesis of albumin; effect on albumin synthesis [4, 16]: decreases; effect on complement Bf synthesis [5]: increases; effect on alpha1-ACT synthesis ([1]; 1 and 10 nM, Fig. 7): increases; effect on transferrin synthesis [6]: decreases; effect on alpha1-AT synthesis [7]: no effect; effect on C5 synthesis [8]: no effect; effect on fibrinogen and C4 synthesis [9]: minimally and inconsistently increased; induction of serum amyloid A or C-reactive protein synthesis [10]: no evidence for induc- tion; effect on C3 and albumin synthesis at higher concentrations [11]: dissipation of the effect; effect on neutrophil chemotaxis at supersaturating concentrations (neutrophils): abrogated at supersaturating concentra- tions; neutrophil activities mediated (neutrophils): chemotactic ac- tivity, phagocytic activity, release of active oxygen inter- mediates, release of granular enzymes, and increase in adhesion/aggregationproperties in neutrophils; histamine release from mast cells [13]: releaseofhistamine from mast cells; smooth muscle contraction [13]: smooth muscle contraction; vascular permeability [13]: increasedvascularpermeability; vasodilatation [13]: vasodilatation; binding to human endothelial cells (human endothelial cells): binds to human endothelial cells; inhibition of binding of 125I-C5a to HepG2 cells (C5aR in HepG2 cells): inhibit binding
